Source: US5187165A, “Memory enhancing and analgesic 1,2,3a,8,8a-hexahydro-3a,8(and 1,3a,8)-di(and tri)methylpyrrolo[2,3-b]indoles” (priority 1988, dated 1993)
Structures can show the parent of a compound that is named as a salt. Where two headings read alike, the source gives them in different places.

Tests used:
[1] = tested on: scopolamine-induced memory deficit; assay: Dark Avoidance Assay (scopolamine induced memory deficit reversal); assay type: in vivo, mice; settings: Mus musculus, sc, 24 h, read-out: % of Animals with Scopolamine Induced Memory Deficit Reversal
Procedure: In this assay mice are tested for their ability to remember an unpleasant stimulus for a period of 24 hours. A mouse is placed in a chamber that contains a dark compartment; a strong incandescent light drives it to the dark compartment, where an electric shock is administered through metal plates on the floor. The animal is removed from the testing apparatus and tested again, 24 hours later, for the ability to remember the electric shock.
If scopolamine, an anticholinergic that is known to cause memory impairment, is administered before an animal's initial exposure to the test chamber, the animal re-enters the dark compartment shortly after being placed in the test chamber 24 hours later. This effect of scopolamine is blocked by an active test compound, resulting in a greater interval before re-entry into the dark compartment.
The results for an active compound are expressed as the percent of a group of animals in which the effect of scopolamine is blocked, as manifested by an increased interval between being placed in the test chamber and re-entering the dark compartment.

[2] = molecular target: T1, acetylcholinesterase (Brain AChE) (Rattus norvegicus, UniProt P37136); assay: In Vitro Inhibition of Acetylcholinesterase Activity in Rat Striatum; assay type: biochemical
T1 construct: corpora striata dissected free, weighed and homogenized in 19 volumes; from tissue; host or cells: corpora striata of male Wistar rats, crude homogenate in phosphate buffer
T1 sequence (P37136 32-614): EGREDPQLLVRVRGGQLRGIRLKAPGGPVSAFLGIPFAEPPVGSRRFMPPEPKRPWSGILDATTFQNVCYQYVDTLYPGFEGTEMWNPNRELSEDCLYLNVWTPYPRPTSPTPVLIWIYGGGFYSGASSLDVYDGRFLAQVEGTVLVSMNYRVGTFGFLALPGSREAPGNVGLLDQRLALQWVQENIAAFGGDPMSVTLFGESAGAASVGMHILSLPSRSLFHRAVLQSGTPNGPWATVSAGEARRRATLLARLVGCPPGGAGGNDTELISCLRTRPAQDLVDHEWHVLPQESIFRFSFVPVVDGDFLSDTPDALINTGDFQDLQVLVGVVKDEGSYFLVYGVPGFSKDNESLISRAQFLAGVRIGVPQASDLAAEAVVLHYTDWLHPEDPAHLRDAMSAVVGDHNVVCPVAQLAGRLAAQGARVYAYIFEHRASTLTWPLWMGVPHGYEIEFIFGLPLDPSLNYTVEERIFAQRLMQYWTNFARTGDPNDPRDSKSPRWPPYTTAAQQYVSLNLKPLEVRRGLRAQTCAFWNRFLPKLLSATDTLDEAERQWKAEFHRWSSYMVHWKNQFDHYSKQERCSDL
From the text: (§1) Cholinesterases are found throughout the body, both in the brain and in serum. However, only brain acetylcholinesterase (AChE) distribution is correlated with central cholinergic innervation. […] We have determined in vitro inhibition of acetylcholinesterase activity in rat striatum and in vitro inhibition of butrylcholinesterase activity in human serum according to the methods described below.
The method described below was used in this invention for assaying cholinesterase activity. This is a modification of the method of Ellman et al., Biochem. Pharmacol. 7, 98 (1961).
1. 0.05M Phosphate buffer, pH 7.2
(§2) (a) 9.9 mg 5,5-dithiobisnitrobenzoic acid (DTNB) (0.25 mM)
(b) 99 mg s-acetylthiocholine chloride (5 mM)
(§3) (c) q.s. to 100 ml with 0.05M phosphate buffer, pH 7.2 (reagent 1)
Male Wistar rats are decapitated, brains rapidly removed, corpora striata dissected free, weighed and homogenized in 19 volumes (approximately 7 mg protein/ml) of 0.05M phosphate buffer, pH 7.2 using a Potter-Elvehjem homogenizer. A 50 microliter aliquot of the homogenate is added to 50 microliter vehicle of various concentrations of the test drug and preincubated for 10 minutes at room temperature.
1. For routine IC50 determinations the Abbott Bichromatic Analyzer, ABA-100, is used to determine acetylcholinesterase activity.
Incubation temperature: 30° C.
Following the 10 minute preincubation of the tissue (enzyme) with the inhibitor, the samples are mixed with the substrate chromogen buffer by the ABA-100. Using the indicated instrument settings the ABA-100 automatically reads the color reaction and prints out the results in enzyme units after 15 minutes.
2. The enzyme activity can also be measured with Gilford 250 spectrophotometer. This method is used for more accurate kinetic measurments.
Reagents are added to the reference and sample side of a split curvette as follows.
The uninhibited activity of the enzyme (tissue homogenate) is first determined. Test drugs are made up in a suitable solvent and added in suitable dilutions to the buffer vehicle. The reaction rate is determined by the slope of the recorded absorbance change. The actual rate (moles/liter/min) can be calculated as described in the following formula
rate(moles/liter/min)=slope/(1.36×10^4).

[3] = molecular target: T2, butyrylcholinesterase (Serum AChE) (Homo sapiens, UniProt P06276); assay: In Vitro Inhibition of Butyrylcholinesterase Activity in Human Serum; assay type: biochemical
T2 construct: A vial of lyophilized human serum; purchased Biodynamics, Houston, Tex; (Precilip); host or cells: lyophilized human serum, reconstituted in water; enzyme not purified
From the text: as §1
This assay can be used in conjunction with the acetylcholinesterase assay to determine the enzyme selectivity of various chloinesterase inhibitors.
Butyrylcholinesterase (BChE), which is sometimes called pseudocholinesterase, preferentially hydrolyzes butyrylcholine. This enzyme is found in the highest amounts in serum, but its physiological role is not known.
as §2
(b) 113 mg s-butyrylthiochloine chloride (5 mM)
as §3
A vial of lyophilized human serum (Precilip, Biodynamics, Houston, Tex. is reconstituted in 3 ml of distilled water. A 10 microliter aliquot of this suspension is added to 90 microliter of the vehicle or various concentrations of the test drug and preincubated for 10 minutes at room temperature.
Substantially the same procedure is used as described above in Section C of the Procedure used for determining the inhibition of acetylcholinsterase activity.

[4] = tested on: 2-phenyl-1,4-benzoquinone-induced writhing; assay: 2-phenyl-1,4-benzoquinone-induced writhing (PQW) test; assay type: in vivo; settings: mice; for ED50: Mus musculus, read-out: ANALGESIC ACTIVITY (ED50), PQW
From the text: Compounds I of the present invention are also useful as analgesic agents due to their ability to alleviate pain in mammals. […] Exptl. Biol. Med., 95,729 (1957)] and in modified Haffner's analgesia.

[5] = tested on: pressure stress by artery clip on tail; assay: Modified Haffner's Analgesia; assay type: in vivo, mice; settings: sc; for ED50: Mus musculus, read-out: ANALGESIC ACTIVITY (ED50), Modified Haffner's Analgesia, mice, sc, peak time of drug activity; for ANALGESIC ACTIVITY (ED50), Modified Haffner's Analgesia: mice, peak time of drug activity
From the text: The latter assay is used to evaluate analgesic activity by measuring drug-induced changes in the sensitivity of mice to pressure stress by placing an artery clip (21/2 inches long) on their tail. The procedure used is a modification of the test developed by Haffner, Dtsch. Med. Wschr., 55, 731 (1929), and it is described below.
Male mice (Charles River, CD-1) from 18-30 grams are used for the test. An artery clip is applied to the root of the tail of a mouse (approximately 1/2 inch from the body) to induce pain. The animal quickly responds to this noxious stimuli by biting the clip or the location of the clip. This reaction time, the interval between stimulus onset and response, is recorded in 1/10-second increments by a stop watch.
For a time response, the screening dose (25 mg/kg) is administered subcutaneously (10 ml/kg) to the animal receiving food and water ad libitum before testing. Animals receiving the compound orally are fasted 18-24 hours before drug administration. Drug to be tested is prepared with distilled water and if insoluble, one drop of a surfactant is added.
Twenty-eight animals (seven/group) are administered the drug 15, 30, 45 and 60 minutes prior to testing.
The cut-off time (CO) is determined by taking the (x) average +(3) standard (SD) deviations of the combined response latencies of the control mice in all time periods.
Any reaction time, in subsequent drug tests, which is greater than the CO (for the same time period) therefore exceeds 99% of a normal Gaussian distribution and is called "positive response" indicative of analgesic activity. A time response indicates the period of greatest analgesic effect after dosing. The ED50 is determined at the peak time of drug activity. A minimum of three dose groups are used. ED50 's are calculated using computer analysis.

norepinephrine uptake = assay type: biochemical; settings: rat brain synaptosomes, 50 nM 3H-NE, 37° C., 5 min; read-out: Reuptake Inhibition of neurotransmitters, Norepinephrine

T2 sequence (P06276 29-602): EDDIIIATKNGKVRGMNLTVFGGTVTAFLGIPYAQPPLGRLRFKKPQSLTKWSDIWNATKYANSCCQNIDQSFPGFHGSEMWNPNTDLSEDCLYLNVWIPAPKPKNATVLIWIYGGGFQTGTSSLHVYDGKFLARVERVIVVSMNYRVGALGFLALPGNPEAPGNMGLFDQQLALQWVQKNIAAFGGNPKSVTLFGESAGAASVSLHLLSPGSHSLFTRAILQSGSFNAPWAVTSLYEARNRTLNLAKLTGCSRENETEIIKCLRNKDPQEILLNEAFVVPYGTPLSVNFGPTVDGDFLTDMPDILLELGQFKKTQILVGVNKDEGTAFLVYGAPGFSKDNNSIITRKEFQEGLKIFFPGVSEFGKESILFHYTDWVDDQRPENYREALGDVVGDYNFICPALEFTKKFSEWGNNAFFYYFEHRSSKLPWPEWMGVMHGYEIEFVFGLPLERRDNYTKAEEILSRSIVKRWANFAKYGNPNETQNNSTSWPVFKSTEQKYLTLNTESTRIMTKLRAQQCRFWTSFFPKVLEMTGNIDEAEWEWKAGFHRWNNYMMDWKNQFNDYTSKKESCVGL

CCN(CC)C(=O)Oc1cc2c(cc1Br)N(C)[C@H]1N(C)CC[C@@]21C [(3aS-cis)-6-bromo-1,2,3,3a,8,8a-hexahydro-1,3a,8-trimethylpyrrolo[2,3-b]indol-5-ol, N,N-diethyl carbamate ester]
responders at 5 mg/kg [1]: 40%

CN1CC[C@@]2(C)c3cc(OC(=O)NC45CC6CC(CC(C6)C4)C5)ccc3N(C)[C@@H]12 [(3aS-cis)-1,2,3,3a,8,8a-Hexahydro-1,3a,8-trimethylpyrrolo[2,3-b]indol-5-ol,(1-adamantyl)carbamate ester]
IC50 [2]: 3.05 µM | IC50 [3]: > 100 µM | responders at 1.25 mg/kg [1]: 27%

CN1CC[C@@]2(C)c3cc(OC(=O)NC4CCCCCCCCCCC4)ccc3N(C)[C@@H]12 [(3aS-cis)-1,2,3,3a,8,8a-Hexahydro-1,3a,8-trimethylpyrrolo[2,3-b]indol-5-ol,cyclododecyl carbamate ester]
IC50 [2]: 0.41 µM | IC50 [3]: > 1000 µM

CN1CC[C@@]2(C)c3cc(OC(=O)N4CC5CCC(CC5)C4)ccc3N(C)[C@@H]12 [(3aS-cis)-1,2,3,3a,8,8a-Hexahydro-1,3a,8-trimethylpyrrolo[2,3-b]indol-5-ol,[3-[3-azabicyclo[3.2.2]nonyl]]carbamate ester fumarate]
IC50 [2]: 0.84 µM | IC50 [3]: > 1000 µM | responders at 5 mg/kg [1]: 33%

CN1CC[C@@]2(C)c3cc(O)ccc3N(C)[C@@H]12 [eseroline salicylate, reference compound]
ED50 ([4]; sc, sc): 0.52 mg/kg | ED50 [5]: 0.18 mg/kg

CN1CC[C@@]2(C)c3cc(O)cc(Br)c3N(C)[C@@H]12 (relative stereo) [(3aS-cis)-7-Bromo-1,2,3,3a, 8,8a-hexahydro-1,3a,8-trimethylpyrrolo[2,3-b]indol-5-ol]
ED50 ([4]; po, po): 0.36 mg/kg

CCN1CCC2(C)c3cc(O)cc(Br)c3N(C)C12 (centres unmarked) [7-Bromo-1-ethyl-1,2,3,3a,8,8a-hexahydro-3a,8-dimethylpyrrolo[2,3-b]indol-5-ol salicylate]
ED50 ([4]; sc, sc): 2.52 mg/kg | ED50 [5]: 1.94 mg/kg

CN1CC[C@@]2(C)c3cc(O)cc(Br)c3N(C)[C@@H]12 (relative stereo) [(3aS-cis)-7-bromo-1,2,3,3a,8,8a-hexahydro-1,3a,8-trimethylpy] [(3aS-cis)-7-Bromo-1,2,3,3a, 8,8a-hexahydro-1,3a,8-trimethylpyrrolo[2,3-b]indol-5-ol]
ANALGESIC ACTIVITY (ED50), PQW ([4]; sc): 0.041 mg/kg | ANALGESIC ACTIVITY (ED50), Modified Haffner's Analgesia [5]: 0.55 mg/kg

CN1CC[C@@]2(C)c3cc(OC(=O)C(C)(C)C)cc(Br)c3N(C)[C@@H]12.Cl (relative stereo) [(3aS-cis)-7-Bromo-1,2,3,3a,8,8a-hexahydro-1,3a,8-trimethylpyrrolo[2,3-b]indol-5-ol, trimethylacetate hydrochloride]
ED50 ([4]; sc, sc): 0.8 mg/kg | ED50 [5]: 0.6 mg/kg

CNC(=O)Oc1cc(C)c2c(c1)[C@]1(C)CCN(C)[C@@H]1N2C [(3aS-cis)-1,2,3,3a,8,8a-Hexahydro-1,3a,7,8-tetramethylpyrrolo[2,3-b]indol-5-ol, methyl carbamate ester]
IC50 [2]: 0.012 µM

CN1CC[C@@]2(C)c3cc(O)cc(Br)c3N(C)[C@@H]12 (relative stereo) [7-bromo-1,2,3,3a,8,8a-hexahydro-1,3a,8-trimethylpyrrolo[2,3-] [7-Bromo-1,2,3,3a,8,8a-hexahydro-1,3a,8-trimethylpyrrolo[2,3-b]indol-5-ol]
ANALGESIC ACTIVITY (ED50), PQW ([4]; po): 0.33 mg/kg | ANALGESIC ACTIVITY (ED50), PQW ([4]; sc): 0.17 mg/kg | ANALGESIC ACTIVITY (ED50), Modified Haffner's Analgesia [5]: 0.22 mg/kg

C=CCN1CCC2(C)c3cc(O)ccc3N(C)C12 (centres unmarked) [1,2,3,3a,8,8a-Hexahydro-3a,8-dimethyl-1-(2-propenyl)-pyrrolo[2,3-b]indol-5-ol salicylate]
ED50 ([4]; sc, sc): 3.9 mg/kg | ED50 [5]: 2.56 mg/kg

CCC1CCC(NC(=O)Oc2ccc3c(c2)[C@]2(C)CCN(C)[C@@H]2N3C)CC1 (stereo partly drawn) [(3aS-cis)-1,2,3,3a,8,8a-Hexahydro-1,3a,8-trimethylpyrrolo[2,3-b]indol-5-ol,4-ethylcyclohexyl carbamate ester]
IC50 (norepinephrine uptake): 2.6 µM

CC(=O)Oc1cc([N+](=O)[O-])c2c(c1)[C@]1(C)CCN(C)[C@@H]1N2C [(3aS-cis)-1,2,3,3a,8,8a-Hexahydro-1,3a,8-trimethyl-7-nitropyrrolo[2,3-b]indol-5-ol acetate fumarate]
ED50 ([4]; sc, sc): 1.5 mg/kg | ED50 [5]: 3.6 mg/kg

Cc1cc(O)cc2c1N(C)[C@H]1N(C)CC[C@@]21C (relative stereo) [(3aS-cis)-1,2,3,3a,8,8a-Hexahydro-1,3a,7,8-tetramethylpyrrolo[2,3-b]indol-5-ol]
ED50 ([4]; sc, sc): 0.22 mg/kg | ED50 [5]: 0.31 mg/kg
